According to patent US20200352905A1, “6-(2,4-DICHLOROPHENYL)-5-[4-[(3S)-1-(3-FLUOROPROPYL)PYRROLIDIN-3-YL]OXYPHENYL]-8,9-DIHYDRO-7H-BENZO[7]ANNULENE-2-CARBOXYLIC ACID FOR USE IN METASTATIC OR ADVANCED BREAST CANCER PATIENTS” (SANOFI, priority 2019, published 2020):
Entries after “also recorded” stand apart in the source; their conditions may differ.

Key:
[1] = test system: ER-positive and HER2-negative advanced breast cancer; assay: TED14856 Part A: antitumor activity per RECIST v1.1 (BOR, ORR, CBR)
Excerpt: The signal extinction between baseline and on study treatment ^18FES-PET scans constitute the PD readout of the ER engagement.
Patients with an early progression as per RECIST v1.1 or who died from disease progression are evaluable for response.
Preliminary efficacy is descriptively presented on activity/efficacy population.

[2] = Phase 1/2 study TED14856 Part A (dose escalation): safety, DLT, TEAEs; assay type: in vivo
Protocol: This is an open-label, non-comparative, dose escalation and dose expansion, safety, efficacy, PK and PD evaluation study of compound (1) administered orally as monotherapy.
Dose escalation is initiated with a once daily (QD) schedule with a starting dose of 20 mg/day. Dose escalation is expected to proceed according to the Table A below. Intra-patient dose escalation is not permitted.
Part A of this study is designed using the 3+3 concept: 3 to 6 patients are treated at each dose level, depending on DLTs observed in the first 3 patients. If one of the first 3 evaluable patients experiences DLT during Cycle 1, this cohort is expanded with a total of up to 6 patients. If less than 1 out of 3 patients or less than 2 out of 6 patients experience DLTs at a given dose level, the dose escalation is proceeded to the next dose level.
For the QD regimen, during Cycle 1, one dose is taken on Day 1 in fasting condition, no dose on Day 2 and repeated administration starts from Day 3. On Day 3 only, the dose is taken in fed condition for a food effect evaluation, and then all subsequent administrations are taken in fasted condition, and at approximately the same time each day (±3 hours). From the conclusions drawn with the initial QD dose regimen, patients treated with other dose regimens are allowed to take Compound (1) in fasted or fed condition. For the BID regimen, the 600 mg dose is split in two drug administrations: 300 mg taken two times a day 12 hours apart (i.e. 2×300 mg)±1 hour with or without food (with one dose only taken in the morning on Day 1, no dose on Day 2 and then repeated BID dosing from Day 3).
Incidence of study treatment-related DLTs at Cycle 1 (Day 1 to Day 28). DLT is defined as the occurrence of any of the following treatment-emergent adverse events (TEAEs) related to the study therapy using NCI-CTCAE (v4.03): • Any Grade ≥3 non-hematological toxicity, except: • Grade 3 nausea and vomiting resolving to Grade ≤1 within 48 hours, with or without adequate antiemetic treatment, • Grade 3 diarrhea, if controlled with adequate antidiarrheal therapy and lasting less than 48 hours. • Any Grade ≥3 hematological toxicity, except • Grade 3 anemia, • Grade 4 neutropenia <7 days, • Grade 3 neutropenia without fever or infection, • Grade 3 thrombocytopenia without bleeding. • Any elevated total serum bilirubin >2×ULN. • Any toxicity related to study treatment, resulting in omission of the study treatment for 7 days or more during Cycle 1. • A TEAE that in the opinion of the study committee is possibly or probably study treatment-related and is of potential clinical significance such that further dose escalation would expose patients to unacceptable risk.
These TEAEs are considered as study treatment-related in the absence of evidence to the contrary and if not related to disease progression. If multiple toxicities are seen, the presence of DLT will be based on the most severe experienced toxicity. At the end of Cycle 1, each patient must be assessed by the Investigator as to whether or not the patient experienced DLT, and this information must be recorded within the appropriate screen of the electronic case report forms (eCRFs) and an electronic DLT notification (either DLT or not) is sent to the Sponsor. Patients can continue the treatment after resolution (Grade 1) of the adverse event (AE) or to their baseline status. Patients need to complete at least 75% of the intended doses at Cycle 1 to be evaluable and shall have ^18FES-PET scans evaluable at baseline and between Day 11 and Day 15 to be evaluable for DLTs in Part A.
Safety population includes all patients exposed to at least one dose of the study treatment.
Study treatment-related DLTs occurring during Cycle 1 are assessed and analyzed on the DLT-evaluable population. In addition, AEs meeting DLT criteria occurring in any additional cycle are assessed and analyzed on the safety population. […]

O=C(O)c1ccc2c(c1)CCCC(c1ccc(Cl)cc1Cl)=C2c1ccc(O[C@H]2CCN(CCCF)C2)cc1 [compound (1), 6-(2,4-dichlorophenyl)-5-[4-[(3S)-1-(3-fluoropropyl)pyrrolidin-3-yl]oxyphenyl]-8,9-dihydro-7H-benzo[7]annulene-2-carboxylic acid]
Clinical Benefit Rate ([1]; 20 mg, N=3): 0 n
Complete Response (CR) ([1]; 20 mg, N=3): 0 n
Objective Response Rate ([1]; 20 mg, N=3): 0 n
Partial Response (PR) ([1]; 20 mg, N=3): 0 n
Complete Response (CR) ([1]; 150 mg, N=3): 0 n
Complete Response (CR) ([1]; 200 mg, N=4): 0 n
Objective Response Rate ([1]; 200 mg, N=4): 0 n
Partial Response (PR) ([1]; 200 mg, N=4): 0 n
Complete Response (CR) ([1]; 400 mg, N=3): 0 n
Objective Response Rate ([1]; 400 mg, N=3): 0 n
Partial Response (PR) ([1]; 400 mg, N=3): 0 n
Complete Response (CR) ([1]; 600 mg, N=3): 0 n
Objective Response Rate ([1]; 600 mg, N=3): 0 n
Partial Response (PR) ([1]; 600 mg, N=3): 0 n
Complete Response (CR) ([1]; All, N=16): 0 n
patients with tumor shrinkage greater than 10% ([1]; N=16): 9 patients
Clinical Benefit Rate (CBR) ([1]; patients with ESR1 mutations (5/11)): 45.5%
Clinical Benefit Rate (CBR) ([1]; patients with wild-type ESR1 (3/5)): 60.0%
Patients with related TEAE: Urinary tract infection ([2]; Part A, N=16): 0 n
maximum tolerated dose (MTD) ([2]; Part A, up to 600 mg QD): not reached; also recorded: no MTD observed
patients who died during study period ([2]; Part A, 3 disease progression, 1 unknown reason): 4 patients
patients with serious TEAEs ([2]; Part A, all considered not associated with compound (1)): 3 patients
Patients with Gr3 TEAE: Abdominal pain upper ([2]; female, human, in vivo): 0 n
Patients with Gr3 TEAE: Arthralgia ([2]; female, human, in vivo): 0 n
Patients with Gr3 TEAE: Asthenia ([2]; female, human, in vivo): 0 n
Patients with Gr3 TEAE: Constipation ([2]; female, human, in vivo): 0 n
Patients with Gr3 TEAE: Cough ([2]; female, human, in vivo): 0 n
Patients with Gr3 TEAE: Decreased appetite ([2]; female, human, in vivo): 0 n
Patients with Gr3 TEAE: Diarrhea ([2]; female, human, in vivo): 0 n
Patients with Gr3 TEAE: Dry skin ([2]; female, human, in vivo): 0 n
Patients with Gr3 TEAE: Dysgeusia ([2]; female, human, in vivo): 0 n
Patients with Gr3 TEAE: Hot flush ([2]; female, human, in vivo): 0 n
Patients with Gr3 TEAE: Hypertension ([2]; female, human, in vivo): 0 n
Patients with Gr3 TEAE: Hypoaesthesia ([2]; female, human, in vivo): 0 n
Patients with Gr3 TEAE: Musculoskeletal chest pain ([2]; female, human, in vivo): 0 n
Patients with Gr3 TEAE: Myalgia ([2]; female, human, in vivo): 0 n
Patients with Gr3 TEAE: Nasopharyngitis ([2]; female, human, in vivo): 0 n
Patients with Gr3 TEAE: Nausea ([2]; female, human, in vivo): 0 n
Patients with Gr3 TEAE: Night sweat ([2]; female, human, in vivo): 0 n
Patients with Gr3 TEAE: Pain ([2]; female, human, in vivo): 0 n
Patients with Gr3 TEAE: Photophobia ([2]; female, human, in vivo): 0 n
Patients with Gr3 TEAE: Rash ([2]; female, human, in vivo): 0 n
Patients with Gr3 TEAE: Upper respiratory tract infection ([2]; female, human, in vivo): 0 n
Patients with Gr3 TEAE: Vomiting ([2]; female, human, in vivo): 0 n
Patients with related Gr3 TEAE: ALL ([2]; female, human, in vivo): 0 n
Patients with related Gr3 TEAE: Abdominal pain upper ([2]; female, human, in vivo): 0 n
Patients with related Gr3 TEAE: Arthralgia ([2]; female, human, in vivo): 0 n
Patients with related Gr3 TEAE: Asthenia ([2]; female, human, in vivo): 0 n
Patients with related Gr3 TEAE: Back pain ([2]; female, human, in vivo): 0 n
Patients with related Gr3 TEAE: Constipation ([2]; female, human, in vivo): 0 n
Patients with related Gr3 TEAE: Cough ([2]; female, human, in vivo): 0 n
Patients with related Gr3 TEAE: Decreased appetite ([2]; female, human, in vivo): 0 n
Patients with related Gr3 TEAE: Diarrhea ([2]; female, human, in vivo): 0 n
Patients with related Gr3 TEAE: Dry skin ([2]; female, human, in vivo): 0 n
Patients with related Gr3 TEAE: Dysgeusia ([2]; female, human, in vivo): 0 n
Patients with related Gr3 TEAE: Dyspnoea ([2]; female, human, in vivo): 0 n
Patients with related Gr3 TEAE: Fatigue ([2]; female, human, in vivo): 0 n
Patients with related Gr3 TEAE: Hot flush ([2]; female, human, in vivo): 0 n
Patients with related Gr3 TEAE: Hypertension ([2]; female, human, in vivo): 0 n
Patients with related Gr3 TEAE: Hypoaesthesia ([2]; female, human, in vivo): 0 n
Patients with related Gr3 TEAE: Musculoskeletal chest pain ([2]; female, human, in vivo): 0 n
Patients with related Gr3 TEAE: Myalgia ([2]; female, human, in vivo): 0 n
Patients with related Gr3 TEAE: Nasopharyngitis ([2]; female, human, in vivo): 0 n
Patients with related Gr3 TEAE: Nausea ([2]; female, human, in vivo): 0 n
Patients with related Gr3 TEAE: Night sweat ([2]; female, human, in vivo): 0 n
Patients with related Gr3 TEAE: Pain ([2]; female, human, in vivo): 0 n
Patients with related Gr3 TEAE: Photophobia ([2]; female, human, in vivo): 0 n
Patients with related Gr3 TEAE: Rash ([2]; female, human, in vivo): 0 n
Patients with related Gr3 TEAE: Upper respiratory tract infection ([2]; female, human, in vivo): 0 n
Patients with related Gr3 TEAE: Urinary tract infection ([2]; female, human, in vivo): 0 n
Patients with related Gr3 TEAE: Vomiting ([2]; female, human, in vivo): 0 n
Patients with related TEAE: Cough ([2]; female, human, in vivo): 0 n
Patients with related TEAE: Dysgeusia ([2]; female, human, in vivo): 0 n
Patients with related TEAE: Hypoaesthesia ([2]; female, human, in vivo): 0 n
Patients with related TEAE: Musculoskeletal chest pain ([2]; female, human, in vivo): 0 n
Patients with related TEAE: Nasopharyngitis ([2]; female, human, in vivo): 0 n
Patients with related TEAE: Rash ([2]; female, human, in vivo): 0 n
Patients with related TEAE: Upper respiratory tract infection ([2]; female, human, in vivo): 0 n
serious TEAEs reported ([2]; female, human, in vivo): 4
